The source of these data is ChEMBL document CHEMBL5465560, “Selectivity Literature for EUbOPEN Chemogenomic Library” (2024).

For experiment [1], the target named is RAC-gamma serine/threonine-protein kinase (Homo sapiens, UniProt Q9Y243). Kind of experiment: Selectivity interaction (Kinase panel (Z-LYTE Assay)) EUB0001632a AKT3. As to conditions: at 10 µM.
For experiment [2], the target named is Mitogen-activated protein kinase kinase kinase 10 (Homo sapiens) (UniProt Q02779). The experiment in a line: Selectivity interaction (KinomeScan (DiscoverX)) EUB0000666a MAP3K10. The following applies: at 10 µM.
Mitogen-activated protein kinase kinase kinase 10 (Homo sapiens), sequence (Q02779 whole entry, looked up): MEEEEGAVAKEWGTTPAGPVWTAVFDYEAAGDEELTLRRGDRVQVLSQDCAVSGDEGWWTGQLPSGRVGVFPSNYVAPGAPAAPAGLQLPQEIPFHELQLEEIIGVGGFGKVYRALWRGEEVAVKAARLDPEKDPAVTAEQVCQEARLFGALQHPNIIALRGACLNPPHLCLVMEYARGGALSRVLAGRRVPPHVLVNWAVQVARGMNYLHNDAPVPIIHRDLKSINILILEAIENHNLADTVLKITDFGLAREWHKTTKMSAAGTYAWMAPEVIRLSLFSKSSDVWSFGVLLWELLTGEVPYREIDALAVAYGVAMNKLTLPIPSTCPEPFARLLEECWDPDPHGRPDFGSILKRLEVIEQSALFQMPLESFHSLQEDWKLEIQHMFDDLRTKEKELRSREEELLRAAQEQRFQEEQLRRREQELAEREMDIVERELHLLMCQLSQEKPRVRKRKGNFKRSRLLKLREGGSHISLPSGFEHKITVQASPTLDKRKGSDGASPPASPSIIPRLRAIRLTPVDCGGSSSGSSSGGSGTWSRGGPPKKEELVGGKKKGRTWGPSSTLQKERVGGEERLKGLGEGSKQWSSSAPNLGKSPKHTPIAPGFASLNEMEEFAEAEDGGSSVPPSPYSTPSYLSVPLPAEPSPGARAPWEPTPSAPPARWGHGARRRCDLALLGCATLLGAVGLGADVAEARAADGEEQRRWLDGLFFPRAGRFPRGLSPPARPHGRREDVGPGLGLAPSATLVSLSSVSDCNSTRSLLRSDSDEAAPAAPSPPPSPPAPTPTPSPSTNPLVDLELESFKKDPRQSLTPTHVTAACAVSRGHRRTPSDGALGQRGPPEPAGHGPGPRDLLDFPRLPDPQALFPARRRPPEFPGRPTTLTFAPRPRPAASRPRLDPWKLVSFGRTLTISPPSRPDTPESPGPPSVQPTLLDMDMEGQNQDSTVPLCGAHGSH
In experiment [3] the target is T1, Atypical kinase COQ8B, mitochondrial (Homo sapiens) (UniProt Q96D53).
T1 sequence (whole entry): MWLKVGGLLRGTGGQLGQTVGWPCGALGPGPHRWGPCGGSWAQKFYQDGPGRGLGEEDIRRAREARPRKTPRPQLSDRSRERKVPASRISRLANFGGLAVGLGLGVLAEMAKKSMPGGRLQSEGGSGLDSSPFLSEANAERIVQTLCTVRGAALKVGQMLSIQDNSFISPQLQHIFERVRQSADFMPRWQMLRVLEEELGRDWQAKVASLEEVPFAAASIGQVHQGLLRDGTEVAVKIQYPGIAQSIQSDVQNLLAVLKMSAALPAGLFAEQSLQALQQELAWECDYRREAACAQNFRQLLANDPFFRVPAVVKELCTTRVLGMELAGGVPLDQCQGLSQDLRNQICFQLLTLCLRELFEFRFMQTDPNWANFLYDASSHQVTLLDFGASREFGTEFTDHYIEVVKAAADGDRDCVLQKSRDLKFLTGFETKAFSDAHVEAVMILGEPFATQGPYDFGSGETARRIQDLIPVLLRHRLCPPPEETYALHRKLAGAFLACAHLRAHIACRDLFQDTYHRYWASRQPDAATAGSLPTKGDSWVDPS
The experiment in a line: Selectivity interaction (KinomeScan (DiscoverX)) EUB0000655a ADCK4. As to conditions: at 10 µM.

Experiment [4] concerns the target T2, Cyclin-dependent kinase 11A (Homo sapiens) (UniProt Q9UQ88).
T2 sequence (whole entry): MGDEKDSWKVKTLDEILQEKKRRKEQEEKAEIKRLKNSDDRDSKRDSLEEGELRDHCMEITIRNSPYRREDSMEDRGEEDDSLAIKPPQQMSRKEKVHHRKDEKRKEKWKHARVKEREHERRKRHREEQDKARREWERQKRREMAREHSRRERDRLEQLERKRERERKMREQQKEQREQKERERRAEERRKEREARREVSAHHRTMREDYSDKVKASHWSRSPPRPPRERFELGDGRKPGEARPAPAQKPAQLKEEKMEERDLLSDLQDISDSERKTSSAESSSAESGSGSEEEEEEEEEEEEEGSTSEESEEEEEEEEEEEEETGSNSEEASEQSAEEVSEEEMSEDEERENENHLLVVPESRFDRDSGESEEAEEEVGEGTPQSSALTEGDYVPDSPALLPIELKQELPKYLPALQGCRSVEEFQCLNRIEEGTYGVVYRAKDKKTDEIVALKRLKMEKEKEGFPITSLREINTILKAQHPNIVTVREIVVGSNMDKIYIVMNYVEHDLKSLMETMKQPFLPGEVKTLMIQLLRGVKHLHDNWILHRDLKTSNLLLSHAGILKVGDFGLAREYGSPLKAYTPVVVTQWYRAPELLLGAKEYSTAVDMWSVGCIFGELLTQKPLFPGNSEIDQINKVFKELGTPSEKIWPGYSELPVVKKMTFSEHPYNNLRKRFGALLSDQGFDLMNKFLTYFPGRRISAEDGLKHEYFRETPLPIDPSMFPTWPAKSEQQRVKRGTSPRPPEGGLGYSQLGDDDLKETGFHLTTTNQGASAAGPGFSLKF
The experiment in a line: Selectivity interaction (ActivX KiNativ screen (ex vivo kinase selectivity in human PBMCs)) EUB0001619a CDK11A. The class given is cell-based. As to conditions: PBMC, at 1 µM.

For experiment [5], the target named is Casein kinase I isoform delta (Homo sapiens, UniProt P48730). The following applies: at 10 µM.
Casein kinase I isoform delta, sequence (P48730 whole entry, looked up, canonical isoform): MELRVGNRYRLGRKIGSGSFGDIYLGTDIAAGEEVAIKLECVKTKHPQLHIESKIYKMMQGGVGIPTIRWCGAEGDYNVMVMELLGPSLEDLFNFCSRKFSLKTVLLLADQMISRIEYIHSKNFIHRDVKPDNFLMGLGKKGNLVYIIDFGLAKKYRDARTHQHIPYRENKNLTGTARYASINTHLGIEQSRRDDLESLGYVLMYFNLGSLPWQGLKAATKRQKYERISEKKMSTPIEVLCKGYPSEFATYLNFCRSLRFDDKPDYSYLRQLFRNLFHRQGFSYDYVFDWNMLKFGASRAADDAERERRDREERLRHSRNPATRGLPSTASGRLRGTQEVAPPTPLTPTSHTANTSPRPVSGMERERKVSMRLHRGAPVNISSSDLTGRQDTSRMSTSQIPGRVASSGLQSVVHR
Experiment [6] relates to Tyrosine-protein kinase ABL1 (Homo sapiens), P00519 [E255K]. The following applies: at 10 µM.
Tyrosine-protein kinase ABL1 (Homo sapiens), P00519 [E255K], sequence (P00519 whole entry E255K): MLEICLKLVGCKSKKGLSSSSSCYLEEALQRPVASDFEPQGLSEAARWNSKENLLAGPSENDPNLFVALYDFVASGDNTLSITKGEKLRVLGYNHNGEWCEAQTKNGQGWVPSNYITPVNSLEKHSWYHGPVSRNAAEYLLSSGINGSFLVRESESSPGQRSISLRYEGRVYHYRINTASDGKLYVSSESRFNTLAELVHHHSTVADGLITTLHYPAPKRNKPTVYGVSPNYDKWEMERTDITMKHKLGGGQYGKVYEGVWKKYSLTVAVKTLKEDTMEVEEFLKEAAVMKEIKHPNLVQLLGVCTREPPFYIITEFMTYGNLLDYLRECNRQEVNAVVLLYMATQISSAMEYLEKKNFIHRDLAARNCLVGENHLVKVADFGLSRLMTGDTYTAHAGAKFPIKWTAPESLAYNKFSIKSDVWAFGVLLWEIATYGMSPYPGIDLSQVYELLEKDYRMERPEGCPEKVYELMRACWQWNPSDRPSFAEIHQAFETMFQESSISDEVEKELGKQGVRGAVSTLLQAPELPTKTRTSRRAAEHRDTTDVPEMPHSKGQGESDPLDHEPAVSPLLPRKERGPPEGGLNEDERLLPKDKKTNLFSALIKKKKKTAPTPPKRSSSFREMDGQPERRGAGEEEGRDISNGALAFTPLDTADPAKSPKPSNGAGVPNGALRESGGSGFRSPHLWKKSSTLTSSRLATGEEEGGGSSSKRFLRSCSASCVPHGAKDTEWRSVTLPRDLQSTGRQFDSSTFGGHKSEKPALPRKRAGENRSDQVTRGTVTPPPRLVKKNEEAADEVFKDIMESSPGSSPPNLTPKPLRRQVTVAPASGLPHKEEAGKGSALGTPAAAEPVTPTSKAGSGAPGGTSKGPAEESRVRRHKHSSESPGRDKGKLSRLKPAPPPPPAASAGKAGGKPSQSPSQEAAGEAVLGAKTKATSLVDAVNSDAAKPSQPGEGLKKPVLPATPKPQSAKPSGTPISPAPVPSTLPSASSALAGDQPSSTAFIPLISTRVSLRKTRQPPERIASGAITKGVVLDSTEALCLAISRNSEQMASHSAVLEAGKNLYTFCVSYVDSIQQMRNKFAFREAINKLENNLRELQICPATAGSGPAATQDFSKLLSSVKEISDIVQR
The target in experiment [7] is T3, Dual specificity tyrosine-phosphorylation-regulated kinase 2 (Homo sapiens) (UniProt Q92630).
T3 sequence (whole entry): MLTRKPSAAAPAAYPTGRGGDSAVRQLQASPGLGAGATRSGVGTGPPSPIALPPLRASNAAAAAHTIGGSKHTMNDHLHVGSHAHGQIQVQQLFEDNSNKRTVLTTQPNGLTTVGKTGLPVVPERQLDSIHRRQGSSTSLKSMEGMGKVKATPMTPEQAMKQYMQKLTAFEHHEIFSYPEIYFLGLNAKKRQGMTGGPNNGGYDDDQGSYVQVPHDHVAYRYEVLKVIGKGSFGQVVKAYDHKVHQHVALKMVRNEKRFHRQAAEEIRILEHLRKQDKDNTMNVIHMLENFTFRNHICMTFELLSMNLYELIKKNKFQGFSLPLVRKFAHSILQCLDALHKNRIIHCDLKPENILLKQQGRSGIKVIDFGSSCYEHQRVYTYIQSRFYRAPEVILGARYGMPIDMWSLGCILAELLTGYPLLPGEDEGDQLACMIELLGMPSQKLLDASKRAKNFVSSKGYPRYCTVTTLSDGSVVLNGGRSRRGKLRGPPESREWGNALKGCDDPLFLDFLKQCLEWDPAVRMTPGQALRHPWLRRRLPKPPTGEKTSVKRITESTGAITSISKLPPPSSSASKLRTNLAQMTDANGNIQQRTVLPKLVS
The experiment in a line: Selectivity interaction (ProQinase) EUB0000171b DYRK2.

The target of experiment [8] is Tyrosine-protein kinase BTK (Homo sapiens, UniProt Q06187). The experiment in a line: Selectivity interaction (ProQinase) EUB0000171b BTK.
Tyrosine-protein kinase BTK, sequence (Q06187 whole entry): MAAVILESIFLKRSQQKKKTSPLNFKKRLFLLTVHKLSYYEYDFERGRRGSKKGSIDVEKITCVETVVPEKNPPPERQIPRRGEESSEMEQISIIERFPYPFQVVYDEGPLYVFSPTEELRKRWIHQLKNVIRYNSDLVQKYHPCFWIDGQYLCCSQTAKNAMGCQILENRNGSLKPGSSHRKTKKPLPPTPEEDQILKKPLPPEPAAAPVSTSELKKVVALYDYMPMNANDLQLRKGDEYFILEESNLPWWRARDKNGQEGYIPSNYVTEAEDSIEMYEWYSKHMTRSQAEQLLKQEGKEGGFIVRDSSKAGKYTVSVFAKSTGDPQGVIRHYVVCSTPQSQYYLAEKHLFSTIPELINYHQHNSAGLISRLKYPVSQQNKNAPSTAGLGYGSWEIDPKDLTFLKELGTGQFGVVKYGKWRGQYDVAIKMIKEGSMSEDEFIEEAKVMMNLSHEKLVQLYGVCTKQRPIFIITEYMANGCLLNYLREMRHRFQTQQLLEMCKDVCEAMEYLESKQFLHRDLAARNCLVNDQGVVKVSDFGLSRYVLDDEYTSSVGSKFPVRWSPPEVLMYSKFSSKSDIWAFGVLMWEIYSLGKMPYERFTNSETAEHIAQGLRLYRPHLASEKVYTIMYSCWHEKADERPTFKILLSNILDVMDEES
For experiment [9], the target named is T4, Tyrosine-protein kinase Tec (Homo sapiens) (UniProt P42680).
T4 sequence (whole entry): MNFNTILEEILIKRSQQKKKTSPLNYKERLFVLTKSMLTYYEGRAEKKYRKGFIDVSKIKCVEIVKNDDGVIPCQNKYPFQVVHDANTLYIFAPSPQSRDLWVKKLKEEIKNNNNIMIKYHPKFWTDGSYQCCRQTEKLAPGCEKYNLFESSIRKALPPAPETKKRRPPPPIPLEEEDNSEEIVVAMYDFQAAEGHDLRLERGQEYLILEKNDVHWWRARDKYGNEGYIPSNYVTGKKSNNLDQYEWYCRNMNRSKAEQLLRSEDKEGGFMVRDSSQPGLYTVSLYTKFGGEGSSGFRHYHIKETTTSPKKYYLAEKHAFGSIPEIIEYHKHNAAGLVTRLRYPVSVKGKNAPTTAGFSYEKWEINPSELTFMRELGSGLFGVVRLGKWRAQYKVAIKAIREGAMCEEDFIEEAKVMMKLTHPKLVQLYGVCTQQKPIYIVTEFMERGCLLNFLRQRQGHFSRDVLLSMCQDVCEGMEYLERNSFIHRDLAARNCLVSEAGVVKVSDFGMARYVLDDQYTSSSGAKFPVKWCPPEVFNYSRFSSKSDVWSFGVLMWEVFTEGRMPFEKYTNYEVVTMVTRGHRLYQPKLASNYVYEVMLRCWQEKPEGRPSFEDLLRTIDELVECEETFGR
As to conditions: at 10 µM.

RAC-gamma serine/threonine-protein kinase, sequence (Q9Y243 whole entry): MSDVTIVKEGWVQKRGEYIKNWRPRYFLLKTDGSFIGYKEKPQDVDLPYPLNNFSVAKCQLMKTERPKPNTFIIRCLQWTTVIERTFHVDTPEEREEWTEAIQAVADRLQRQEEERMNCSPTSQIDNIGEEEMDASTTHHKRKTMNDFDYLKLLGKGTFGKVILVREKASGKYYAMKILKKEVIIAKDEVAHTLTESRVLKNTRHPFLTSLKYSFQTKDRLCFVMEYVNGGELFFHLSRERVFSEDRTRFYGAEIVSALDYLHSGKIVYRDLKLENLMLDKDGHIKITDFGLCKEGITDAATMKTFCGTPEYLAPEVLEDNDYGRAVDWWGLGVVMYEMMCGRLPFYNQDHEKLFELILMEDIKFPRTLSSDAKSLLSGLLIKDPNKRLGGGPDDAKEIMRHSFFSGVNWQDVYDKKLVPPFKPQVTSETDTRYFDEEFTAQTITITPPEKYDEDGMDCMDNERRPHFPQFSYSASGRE

In turn, `Cn1cc(-n2cnc3c(NCc4nc5cc(Cl)c(Cl)cc5[nH]4)nc(N4CCOCC4)nc32)cn1` yielded a % of control in experiment [1] of 2.65%.

`O=C(NOC[C@H](O)CO)c1ccc(F)c(F)c1Nc1ccc(I)cc1F` displayed a % of control in [2] of 100%.

As for `CN(C)CCOc1ccc(-c2nc(-c3ccncc3)c(-c3ccc4c(c3)CC/C4=N\O)[nH]2)cc1`, the % of control in experiment [3] was 45%.

`N#Cc1cccc(-c2c[nH]c3ncnc(N4CCOCC4)c23)c1` displayed a % of inhibition in [4] of 36%.

In the case of `CCN(CC)CCCCNc1ncc2cc(-c3cc(OC)cc(OC)c3)c(NC(=O)NC(C)(C)C)nc2n1`, the % of control in experiment [5] and in [6] was 100% in each case.

As to `C=CC(=O)Nc1cccc(C(=O)Nc2ccc(Nc3cc(-c4[nH]c(SC)nc4C)ccn3)cc2)c1`, the % of control in [7] (at 1 µM) came out at 72%; in experiment [7] (at 5 µM) it was 30%; in experiment [8] (at 1 µM) it was 101%; in experiment [8] (at 5 µM) it was 87%.

For the compound `COCC(=O)NC/C=C/c1ccc2ncnc(Nc3ccc(Oc4ccc(C)nc4)c(C)c3)c2c1` [CP-724714], the % of control in experiment [9] came to 73%.
